What was measured:
[1] = tested on: Madin-Darby bovine kidney cells; experiment: BVDV assay, cytotoxicity of the drug-drug combination (MTS staining for cell viability); assay type: cell-based; conditions: in combination with TNF-α; MDBK cells; interaction by Bliss independence (MacSynergy II)
Procedure: (§1) The substances were solubilized in DMSO. […]
(§2) The bovine viral diarrhea virus (BVDV) NADL strain antiviral evaluation assay and drug-drug combination analysis was performed as described in Antimicro. Agents Chemother. 2003; 47: 2293-8. BVDV is frequently employed as a hepatitis C virus surrogate model in the study of antiviral agents (Antiviral Res. 2003; 60: 1-15). Madin-Darby bovine kidney cells were trypsinized, pelleted, counted and resuspended at 1×10^4/well in tissue culture medium in 96-well flat bottom, tissue culture plates in volume of 100µl per well. […]
(§3) At assay termination, the assay plates were stained with the soluble tetrazolium-based dye MTS (CellTiter Reagent Promega) to determine cell viability and quantify compound toxicity. MTS is metabolized y the mitochondrial enzymes of metabolically active cells to yield a soluble formazan product, allowing the rapid quantitative analysis of cell viability and compound cytotoxicity. […] Adhesive sealers were used in place of the lids, the sealed plate was inverted several times to mix the soluble formazan product and the plate was read spectrophotometrically at 490 nm and 650 nm with a Molecular Devices Vmax plate reader. […]
(§4) Theoretical additive values are calculated from the dose response curves for each substance used individually. […]

[2] = tested on: bovine viral diarrhea virus (BVDV) NADL strain; experiment: BVDV antiviral efficacy evaluation, drug-drug combination analysis (checkerboard, MTS staining, MacSynergy II); assay type: cell-based; conditions: in combination with TNF-α; MDBK cells with BVDV virus; interaction by Bliss independence (MacSynergy II)
Procedure: as §1, §2, §3, §4

## O=C(c1ccccc1)c1ccc2nc(NC(=O)c3csc(C4CCN(c5ncnc6ccsc56)CC4)n3)[nH]c2c1 [Compound 273, 2-(1-Thieno[3,2-d]pyrimidin-4-yl-piperidin-4-yl)-thiazole-4-carboxylic acid (5-b enzoyl-1H-benzaimidazol-2-yl)-amide]
[1]
  combined cytotoxic activity: highly antagonistic behaviour
[2]
  combined antiviral activity: highly synergistic behaviour
